Test results reported in publication PMC12040169 (PLOS Biology, 2025).

Assay: in vitro
Settings: human, hela cells, % viability

Structure (SMILES) | viability at 28.5 h, 10 µM [%]
CCC(CN1CCOCC1)NC(=O)Cc1coc2cc(C)c(C)cc12 (stereo not shown) [CBK282811] | 91
Cc1ccc2oc(CN3CCC(O)(c4cccnc4)CC3)c(C)c2c1 [CBK282816] | 94.7
Cc1nc(CC(=O)NC(Cc2ccsc2)c2nccs2)cs1 (stereo not shown) [CBK282823] | 87.5
O=C(NC(Cc1ccsc1)c1nccs1)C1CCOCC1 (stereo not shown) [CBK282824] | 96.4
C=C(C)CN1CCN(Cc2c[nH]nc2C(C)(C)C)CC1 [CBK282827] | 92.6
C=C(C)CN1CCN(Cc2cnn(C3CCCCC3)c2)CC1 [CBK282828] | 98.9
Cc1ccc(O)c(CN(CCCn2ccnc2)CC2CC=CCC2)c1 (stereo not shown) [CBK282829] | 86.7
COCCC(=O)NC(Cc1ccsc1)c1nc(C)cs1 (stereo not shown) [CBK282830] | 85.1
Cc1csc(C(Cc2ccsc2)NC(=O)Cn2cccn2)n1 (stereo not shown) [CBK282831] | 89.7
O=C(c1ccccn1)N1CCCC(c2cc3ccccc3cn2)C1 (stereo not shown) [CBK282832] | 96.3
COc1ccc(C2(NCc3cn(CC(N)=O)c4ccccc34)CC2)cc1 [CBK282833] | 107
COc1ccc(C2(NCc3c(C)nc4sccn34)CC2)cc1 [CBK282835] | 95.2
CCn1cc(S(=O)(=O)NC2(c3ccc(F)cc3)CC2)c(C)n1 [CBK282837] | 92.4
CN1Cc2ccccc2CC1C(=O)N1CCCC12CC=CC2 (stereo not shown) [CBK282838] | 81.3
O=C1CCCN1c1ccc(S(=O)(=O)NCC2CC3CCC2C3)cc1 (stereo not shown) [CBK282841] | 106
C=CCn1cc(CN(CCN(C)C)Cc2ccc(C)o2)c(C)n1 [CBK282844] | 101
CCn1cc(CN(CCN(C)C)Cc2ccc(C)o2)c(C)n1 [CBK282845] | 79.6
C=CCn1ncc(CN(CCN(C)C)Cc2ccc(C)o2)c1C [CBK282846] | 81.3
CCN(CC)C(=O)Cn1ncc2c3oc(C)cc3n(C(C)C)c2c1=O [CBK282848] | 90.7
CN1C(=O)c2ccccc2C(O)C2(C)CN(Cc3ccccc3)CC12 (stereo not shown) [CBK282849] | 108
CN(C)C(=O)CN1C(=O)[C@H]2CCCN2C(=O)c2ccccc21 [CBK282854] | 91.2
O=C1[C@@H]2CCCN2C(=O)c2ccccc2N1CCN1CCCC1 [CBK282857] | 96.3
Cc1ccc(C)c2nc3c(cc12)CN(C1CC1)C(=O)CO3 [CBK282858] | 94.8

Structure (SMILES) | viability at 28.5 h, 10 µM [%]
O=c1c2snc(-c3ccc(F)cc3)c2ncn1C1CC1 [CBK282859] | 76.9
COc1ccc(NC(=O)CCn2ccc3ccncc32)c(C)c1 [CBK282860] | 109
O=C1Nc2ccccc2S(=O)(=O)N2CCCC12 (stereo not shown) [CBK282864] | 112
CC1CCc2noc(C3CCCN(C(=O)c4ccco4)C3)c2C1 (stereo not shown) [CBK282865] | 110
COCC(=O)NC1CC(C)(C)Cc2c1cnn2-c1ccc(C)cc1 (stereo not shown) [CBK282866] | 118
O=C(Cn1nc(C(F)(F)F)c2cccn2c1=O)NC1CCCC1 [CBK282867] | 90.2
CCCN(CC1CC1)C(=O)Cn1c([C@@H]2CCCO2)cc2cccnc21 [CBK282871] | 94.4
C=CCNC(=O)C1CCCN(c2nc3ccccc3n2C)C1 (stereo not shown) [CBK282872] | 105
O=C(Cc1ccc(F)cc1)N1CCOC(Cn2ccnc2)C1 (stereo not shown) [CBK282875] | 91
Cc1cc2ccccc2n2c(=O)n(CCNC(=O)C(C)C)nc12 [CBK282876] | 84.2
Cc1cc(-c2cc(=O)n(CCc3ccccc3)nc2-c2ccco2)on1 [CBK282879] | 105
Nc1cc(-c2cccs2)nn(Cc2ccccc2Cl)c1=O [CBK282884] | 91
CC(C)(C)C(=O)NCCn1c(=O)oc2ccccc21 [CBK282885] | 96.4
Cc1cnc2c(c1)cc(C(F)(F)F)n2CC(=O)NC1CC1 [CBK282887] | 105
O=C(C1CC1)N1CC2CCCC(C1)C2(O)c1cccnc1F (stereo not shown) [CBK282889] | 99.6
CC(C)C(=O)N1CCCC(n2c(=O)oc3ccc(Cl)cc32)C1 (stereo not shown) [CBK282890] | 95.3
O=C(c1ccco1)N1CCc2cc(-c3cn4c(n3)CCCC4)ccc21 [CBK282893] | 98.8
COc1ccccc1Cn1ncc2c1CCCC2NC(=O)C1CCC1 (stereo not shown) [CBK282895] | 110
Cc1ccc(CNCc2cc3c(C)nn(-c4ccccc4)c3[nH]c2=O)o1 [CBK282896] | 90.8
Cc1nn(-c2ccccc2)c2[nH]c(=O)c(CNC3CCC3)cc12 [CBK282897] | 103
Cc1nn(-c2ccccc2)c2[nH]c(=O)c(CNC(C)C)cc12 [CBK282899] | 93.1
CC1CN(Cc2c(C(C)C)[nH]c3ncccc23)CC(C)O1 (stereo not shown) [CBK282900] | 93.7
O=C1CC[C@H](NC(=O)c2cccs2)C(c2cccnc2)N1 (stereo partly shown) [CBK282901] | 98.5

Structure (SMILES) | viability at 28.5 h, 10 µM [%]
CNC(=O)[C@@H]1CN(Cc2ccccc2)C[C@H]1C(=O)c1ccc(F)cc1 [CBK282902] | 110
OC1(c2ccccn2)CCN(CCc2ccccc2)CC1 [CBK282904] | 87.2
O=C(c1cccnc1)N1CCN(CC2(c3ccccc3)CC2)CC1 [CBK282906] | 94.5
O=C1CC[C@@H](NCc2cccc(O)c2)[C@H](c2cc(F)cc(F)c2)N1 [CBK282909] | 98
O=C1CC[C@@H](NCc2ccsc2)[C@H](c2cc(F)cc(F)c2)N1 [CBK282910] | 102
O=C1CC[C@@H](NCc2ccoc2)[C@H](c2cc(F)cc(F)c2)N1 [CBK282912] | 96
Cn1cc(CN[C@@H]2CCC(=O)N[C@H]2c2cc(F)cc(F)c2)cn1 [CBK282913] | 100
Cc1cc(C)c(-n2cccn2)c(CN2CCC(CO)C2)c1 (stereo not shown) [CBK282915] | 87.1
O=C1NCC2(CCN(C(=O)C3CC3)CC2)Oc2ccccc21 [CBK282918] | 101
O=C1NCC2(CCN(C(=O)c3ccco3)CC2)Oc2ccccc21 [CBK282919] | 103
CC(=O)N1c2ccc(C(O)CN3CCCC(C)C3)cc2CC1C (stereo not shown) [CBK282922] | 96.5
CC(=O)N1CCc2cc(C(O)CN3CCCC4CCCCC43)ccc21 (stereo not shown) [CBK282924] | 93.6
O=C(c1ccccc1F)N1CCCC1Cn1c(=O)oc2ccccc21 (stereo not shown) [CBK282926] | 97.5
COc1ccc([C@H]2CN(Cc3ccccc3)C[C@@H]2NC(C)=O)cc1 [CBK282930] | 92.1
CC(=O)N1CCc2cc(C(=O)CN3CCC(c4ccccc4)C3)ccc21 (stereo not shown) [CBK282931] | 98
O[C@@H]1CN(Cc2ccccc2F)CC[C@H]1N1CCCC1 [CBK282934] | 96.9
OCCN(Cc1cccnc1)Cc1cccn1-c1ccccc1Cl [CBK282936] | 89.7
COc1ccc(C(=O)NC2CCCNC2=O)s1 (stereo not shown) [CBK282938] | 88.4
Cc1ccc(C(O)CN(C)Cc2c(C)nn(C)c2C)c(C)c1 (stereo not shown) [CBK282939] | 84.7
CCC(NC(=O)c1ccc(C(C)(C)C)[nH]c1=O)c1ccc(OC)cc1 (stereo not shown) [CBK282940] | 87.8
CN1CCC(CN(C)CC2CCCN(Cc3ccccc3)C2)C1 (stereo not shown) [CBK282946] | 90.7
